Data from PMC3436176 (The Journal of Biological Chemistry, 2012).

How the values were obtained:
[1] = target: T1, GPVI-Fc2 (GPVI dimer) (Homo sapiens, UniProt Q9HCN6); assay: ELISA: GPVI dimer binding to immobilized collagenous substrates; conditions: for Kd (monomer)/Kd (dimer): binding to collagenous substrates
T1 sequence (Q9HCN6 21-214 limits assumed): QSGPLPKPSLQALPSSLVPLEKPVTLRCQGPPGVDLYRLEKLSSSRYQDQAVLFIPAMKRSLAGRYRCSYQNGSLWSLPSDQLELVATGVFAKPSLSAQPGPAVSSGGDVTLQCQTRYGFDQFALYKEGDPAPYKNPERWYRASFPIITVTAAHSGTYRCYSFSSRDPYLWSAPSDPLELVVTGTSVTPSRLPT

[2] = tested on: GPVI on platelets; assay: Flow cytometric GPVI quantitation; type: cell-based, human; conditions: dimers versus resting platelets
[3] = tested on: GPVI dimer on washed platelets; assay: Time and agonist concentration dependence of dimer increase; type: cell-based, human
[4] = CRP 5 μg/ml or thrombin 0.2 unit/ml, washed platelets 2.5 × 10^8 cells/ml

Substance | Kd (monomer)/Kd (dimer) [1] | % increase after activation [2] | time after which dimer levels started to increase [3, 4] | time at which dimer level reaches a maximum [3, 4] | agonist concentration at which dimer level reaches a maximum ([3]; washed platelets 1 × 10^8 cells/ml, FITC-m-Fab-F 100 μg/ml) | Hill coefficient for dimer binding ([1]; mean ± S.E., n = 4-12 as printed)
GPC–(GPP)5–GAOGARGGAGPOGPEGGKGAAGPOGPO(GPP)5–GPC–NH2 [III-30A] | 887.0 |  |  |  |  | 
Thrombin: bovine thrombin (Sigma), platelet agonist |  | 55% | 30 s | 4 to 5 min | > 0.5 unit/ml | 
Collagen type I: Pepsin-treated bovine type I collagen from Koken | 194.3 |  |  |  |  | 1.14 ± 0.07
